These are literature values, as cited in publication PMC8468039, “Development of New Meridianin/Leucettine-Derived Hybrid Small Molecules as Nanomolar Multi-Kinase Inhibitors with Antitumor Activity” (Biomedicines, 2021).

Common to all, as to conditions: cited from earlier work
Data set [1] deals with DYRK-2. More on the design: method as in PMID 21615147, PMID 19879673, PMID 22998443.
Data set [2] relates to CLK-1. More on the design: method as in PMID 21615147, PMID 19879673, PMID 22998443.
Data set [3] deals with DYRK-1A. More on the design: method as in PMID 21615147, PMID 19879673, PMID 22998443.
For data set [4], the system named is CLK-3. On the set-up: method as in PMID 8383730, PMID 21615147, PMID 19879673, PMID 22998443.

`CN1C(=O)/C(=C/c2ccc3c(c2)OCO3)N=C1N` [leucettamine B, Leucettamine B]: the half-maximal inhibitory concentration (IC50) (as a rule, the point on the concentration scale where inhibition reaches its midpoint) in data set [1] was 1500 nM; in data set [2], 400 nM; in data set [3], 2800 nM; in data set [4], 6400 nM.
